The record followed here is patent publication US20230044248A1, “COMBINED INHIBITION OF PD-1, TGFBeta AND ATM TOGETHER WITH RADIOTHERAPY FOR THE TREATMENT OF CANCER” (ARES TRADING S.A., priority 2019, published 2023).

In experiment [1] the test system is 4T1 cells. Kind of experiment: Example 1: bintrafusp alfa, RT and Compound A in the 4T1 mammary tumor model. As to conditions: mice sacrificed at tumor volume ≈2000 mm^3; Compound A 100 mg/kg p.o. day 0-10 where given. The format is in vivo, BALB/c mice.
For experiment [2], the system named is 4T1 cells. Kind of experiment: Example 2: dosing schedule of Compound A in the triple combination, 4T1 mammary tumor model. The following applies: dual combination without Compound A.
Procedure: BALB/c mice were inoculated intramuscularly (i.m.) with 0.5×10^5 4T1 cells (day −7) and treated (n=10 mice/group) with isotype control (400 μg i.v.; day 0, 2, 4)+vehicle control (0.2 mL, p.o., day 0-17), bintrafusp alfa (492 μg i.v.; day 0, 2, 4)+RT (8 Gy, day 0-3), or bintrafusp alfa+RT+Compound A (100 mg/kg, p.o, days 0-3, days 0-10, or day 0-17). Tumor volumes were measured twice weekly and presented as (A) mean±SEM or (B) individual tumor volumes. P-values were calculated by two-way RM ANOVA with Tukey's post-test. (C) For survival analysis, mice were sacrificed when tumor volumes reached ≈2000 mm^3 and median survival times were calculated.
The effect of different dosing schedules of Compound A on the antitumor activity of the triple combination therapy was evaluated in the 4T1 mammary tumor model. […]
(§1) Tumor volumes were calculated with the following formula: tumor volume (mm^3)=tumor length×width×height×0.5236. Tumor growth inhibition (TGI) was calculated with the following formula: TGI (%)=[1−(Ti−T0)/(Vi−V0)]×100, where Ti is the average tumor volume (mm^3) of a treatment group on a given day, TO is the average tumor volume of the treatment group on the first day of treatment, Vi is the average tumor volume of the vehicle control group on the same day as Ti, and V0 is the average tumor volume of the vehicle control group on the first day of treatment. […]
The subject of experiment [3] is 4T1 cells. Kind of experiment: Example 3: triple combination versus dual and monotherapy controls, 4T1 mammary tumor model. The following applies: day 18.
Procedure: BALB/c mice were inoculated intramuscularly (i.m.) with 0.5×10^5 4T1 cells (day −7) and treated (n=10 mice/group) with isotype control (400 μg i.v.; day 0, 2, 4)+vehicle control (0.2 mL, p.o., day 0-4), bintrafusp alfa (492 μg i.v.; day 0, 2, 4)+vehicle control, RT (8 Gy, day 0-3)+isotype control+vehicle control, Compound A (100 mg/kg, p.o, days 0-4)+isotype control, bintrafusp alfa+RT, bintrafusp alfa+Compound A, RT+Compound A, or bintrafusp alfa+RT+Compound A. Tumor volumes were measured twice weekly and presented as (A) mean±SEM or (B) individual tumor volumes. P-values were calculated by two-way RM ANOVA with Tukey's post-test. (C) For survival analysis, mice were sacrificed when tumor volumes reached ≈2000 mm^3 and median survival times were calculated. […]
as §1
Experiment [4] relates to 4T1 cells. Kind of experiment: Example 4: triple combination with various RT doses versus bintrafusp alfa+RT, 4T1 mammary tumor model. The following applies: RT 8Gy, QDx4.
Procedure: Balb/c mice were inoculated with 4T1 cells (0.5×10^6) in the right thigh muscle (day −7). At day 0, when average tumor volumes reached 150 mm^3, mice were treated (n=10 mice/group) with isotype control (400 μg i.v.; Days 0, 2, 4), Bintrafusp alfa (492 μg/mouse i.v.; Days 0, 2, 4)+RT (8Gy, QDx4), or bintrafusp alfa+Compound A (100 mg/kg p.o., QDx4)+RT (8Gy or 6Gy or 4Gy or 2Gy, QDx4). Tumor volumes were measured twice weekly and presented as mean±SEM. P-values were calculated by two-way ANOVA with Sidack's or Tukey's post-test. P-values comparing median survival were calculated with the Log-rank (Mantel-Cox) test.
Treatment was initiated on day 0 when average tumor volume reached ˜150 mm^3. Mice were sacrificed when tumor volumes reached ˜2500 mm^3. […]
Tumor volumes were calculated with the following formula: tumor volume (mm^3)=tumor length×width×height×0.5236.
To compare the percentage survival between different treatment groups, Kaplan-Meier survival curves were generated. Body weight was measured twice weekly and mice were sacrificed when their tumor volume exceeded 2,000 mm^3.
Statistical analyses were performed using GraphPad Prism Software, version 8.0 or 8.0.1. […] A Kaplan-Meier plot was generated to show survival by treatment group and significance was assessed by log-rank (Mantel-Cox) test.

On to “bintrafusp alfa and RT: dual combination therapy of bintrafusp alfa with radiotherapy (RT)”, for which the median survival in the experiment on 4T1 cells [1], with 4T1 cells [2] and with 4T1 cells [4] was 26 days each time. Moreover, the “antitumor activity of dual combination therapy relative to the respective monotherapies” value in the experiment on 4T1 cells [3] is recorded as “enhanced antitumor activity”.
